Test results reported in PubChem BioAssay AID2060912 (Molecular Pharmacology Branch, DTP, NCI, 2025).
pIC50: −log10 of the molar value.

System: HUVEC/MSC spheroids viability
Assay: Human HUVEC/MSC cell line growth inhibition [KRAS2];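 on viability, T/C: percent of DMSO vehicle control luminescence so 100% = untreated viability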
Details: for pIC50: curve of first compound; for viability, T/C: stronger effect = lower value
How it was run: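 Growth/viability of tumour-free HUVEC–hMSC spheroids was measured after exposure to targeted small molecules and KRAS inhibitors, singly or in combination. Agents were diluted in half-log steps from Cmax-based top concentrations, capped at 10 microM without known Cmax.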

With `CC(C)NCC(C(=O)N1CCN(c2ncnc3c2C(C)CC3O)CC1)c1ccc(Cl)cc1` (centres undefined) + CNCc1ccccc1-c1csc(C(C)Nc2nc(C)nc3cc(OC)c(OC)cc23)c1 the pIC50 (second compound 0.0316 µM) was < 5.00, the pIC50 (second compound 0.1 µM) was < 5.00 and the pIC50 (second compound 0.316 µM) was < 5.00. For the same compound, the pIC50 (second compound 1 µM) was < 5.00, the pIC50 (second compound 3.16 µM) was < 5.00 and the pIC50 (second compound 10 µM) was > 7.50. It also gave a viability, T/C (second compound 0.0316 µM, first compound 0.0316 µM) of 95.5%, a viability, T/C (second compound 0.0316 µM, first compound 0.1 µM) of 108% and a viability, T/C (second compound 0.0316 µM, first compound 0.316 µM) of 98.5%. It also gave a viability, T/C (second compound 0.0316 µM, first compound 1 µM) of 70.2%, a viability, T/C (second compound 0.0316 µM, first compound 3.16 µM) of 69% and a viability, T/C (second compound 0.0316 µM, first compound 10 µM) of 64.2%. The viability, T/C (second compound 0.1 µM, first compound 0.0316 µM) was 94.8%, the viability, T/C (second compound 0.1 µM, first compound 0.1 µM) was 97.8% and the viability, T/C (second compound 0.1 µM, first compound 0.316 µM) was 75.6%. The viability, T/C (second compound 0.1 µM, first compound 1 µM) was 70.4%, the viability, T/C (second compound 0.1 µM, first compound 3.16 µM) was 58.1% and the viability, T/C (second compound 0.1 µM, first compound 10 µM) was 54.1%. For the same compound, the viability, T/C (second compound 0.316 µM, first compound 0.0316 µM) was 82.2%, the viability, T/C (second compound 0.316 µM, first compound 0.1 µM) was 106% and the viability, T/C (second compound 0.316 µM, first compound 0.316 µM) was 83.3%. The viability, T/C (second compound 0.316 µM, first compound 1 µM) was 73.5%, the viability, T/C (second compound 0.316 µM, first compound 3.16 µM) was 56.2% and the viability, T/C (second compound 0.316 µM, first compound 10 µM) was 50.8%. For the same compound, the viability, T/C (second compound 1 µM, first compound 0.0316 µM) was 84.6%, the viability, T/C (second compound 1 µM, first compound 0.1 µM) was 106% and the viability, T/C (second compound 1 µM, first compound 0.316 µM) was 103%. It also gave a viability, T/C (second compound 1 µM, first compound 1 µM) of 71.3%, a viability, T/C (second compound 1 µM, first compound 3.16 µM) of 56.5% and a viability, T/C (second compound 1 µM, first compound 10 µM) of 51.6%. The viability, T/C (second compound 3.16 µM, first compound 0.0316 µM) was 108%, the viability, T/C (second compound 3.16 µM, first compound 0.1 µM) was 93.2% and the viability, T/C (second compound 3.16 µM, first compound 0.316 µM) was 89.4%. It also gave a viability, T/C (second compound 3.16 µM, first compound 1 µM) of 79.5%, a viability, T/C (second compound 3.16 µM, first compound 3.16 µM) of 62.5% and a viability, T/C (second compound 3.16 µM, first compound 10 µM) of 57.7%. It also gave a viability, T/C (second compound 10 µM, first compound 0.0316 µM) of 0.38%, a viability, T/C (second compound 10 µM, first compound 0.1 µM) of 0.44% and a viability, T/C (second compound 10 µM, first compound 0.316 µM) of 0.45%. For the same compound, the viability, T/C (second compound 10 µM, first compound 1 µM) was 0.42%, the viability, T/C (second compound 10 µM, first compound 3.16 µM) was 0.39% and the viability, T/C (second compound 10 µM, first compound 10 µM) was 0.26%.

In the case of `CC1COCCN1c1cc(-c2ccnn2C)c2ccnc(-c3ccn[nH]3)c2n1` (centres undefined) + CC1OCC2(CCN(c3cnc(Sc4ccnc(N)c4Cl)c(N)n3)CC2)C1N, the pIC50 (second compound 0.0316 µM) was < 5.52, the pIC50 (second compound 0.1 µM) was 5.58 and the pIC50 (second compound 0.316 µM) was 5.72. For the same compound, the pIC50 (second compound 1 µM) was 5.69, the pIC50 (second compound 3.16 µM) was 6.17 and the pIC50 (second compound 10 µM) was 6.12. For the same compound, the viability, T/C (second compound 0.0316 µM, first compound 0.00949 µM) was 97.8%, the viability, T/C (second compound 0.0316 µM, first compound 0.03 µM) was 99.4% and the viability, T/C (second compound 0.0316 µM, first compound 0.0949 µM) was 82.6%. For the same compound, the viability, T/C (second compound 0.0316 µM, first compound 0.3 µM) was 72.4%, the viability, T/C (second compound 0.0316 µM, first compound 0.949 µM) was 64.5% and the viability, T/C (second compound 0.0316 µM, first compound 3 µM) was 51.5%. For the same compound, the viability, T/C (second compound 0.1 µM, first compound 0.00949 µM) was 95.8%, the viability, T/C (second compound 0.1 µM, first compound 0.03 µM) was 95.7% and the viability, T/C (second compound 0.1 µM, first compound 0.0949 µM) was 83.4%. The viability, T/C (second compound 0.1 µM, first compound 0.3 µM) was 80.4%, the viability, T/C (second compound 0.1 µM, first compound 0.949 µM) was 62.1% and the viability, T/C (second compound 0.1 µM, first compound 3 µM) was 48.6%. For the same compound, the viability, T/C (second compound 0.316 µM, first compound 0.00949 µM) was 105%, the viability, T/C (second compound 0.316 µM, first compound 0.03 µM) was 101% and the viability, T/C (second compound 0.316 µM, first compound 0.0949 µM) was 78.9%. For the same compound, the viability, T/C (second compound 0.316 µM, first compound 0.3 µM) was 64.3%, the viability, T/C (second compound 0.316 µM, first compound 0.949 µM) was 55.3% and the viability, T/C (second compound 0.316 µM, first compound 3 µM) was 46.4%. It also gave a viability, T/C (second compound 1 µM, first compound 0.00949 µM) of 82.6%, a viability, T/C (second compound 1 µM, first compound 0.03 µM) of 94.7% and a viability, T/C (second compound 1 µM, first compound 0.0949 µM) of 78.3%. The viability, T/C (second compound 1 µM, first compound 0.3 µM) was 74.5%, the viability, T/C (second compound 1 µM, first compound 0.949 µM) was 61.6% and the viability, T/C (second compound 1 µM, first compound 3 µM) was 44.4%. The viability, T/C (second compound 3.16 µM, first compound 0.00949 µM) was 84.7%, the viability, T/C (second compound 3.16 µM, first compound 0.03 µM) was 90.5% and the viability, T/C (second compound 3.16 µM, first compound 0.0949 µM) was 69.1%. The viability, T/C (second compound 3.16 µM, first compound 0.3 µM) was 63.7%, the viability, T/C (second compound 3.16 µM, first compound 0.949 µM) was 45% and the viability, T/C (second compound 3.16 µM, first compound 3 µM) was 32.9%. It also gave a viability, T/C (second compound 10 µM, first compound 0.00949 µM) of 56.2%, a viability, T/C (second compound 10 µM, first compound 0.03 µM) of 65.5% and a viability, T/C (second compound 10 µM, first compound 0.0949 µM) of 61.7%. The viability, T/C (second compound 10 µM, first compound 0.3 µM) was 58.2%, the viability, T/C (second compound 10 µM, first compound 0.949 µM) was 48% and the viability, T/C (second compound 10 µM, first compound 3 µM) was 24.7%.
